Experimental data published in patent US20240115488A1, “COMPOSITION FOR ORAL CAVITY CARE” (ICHIMARU PHARCOS CO., LTD., priority 2021, published 2024).
Like-named read-outs stand apart in the source and are kept apart here.

Tested on: Streptococcus mutans (NBRC13955)
Format: cell-based
Details: Cont. group = 100
Experimental: The Streptococcus mutans was cultured in Todd-Hewitt Broth at 37° C. overnight (approximately 16 hours), and proliferated until the absorbance OD660 measured at 660 nm reached to a value in the range from 0.8 to 1.4. The Streptococcus mutans proliferated was used. Based on the absorbance measured, the Streptococcus mutans was diluted with PBS such that OD660 was 0.125, to prepare a bacterial culture to be used in the following test.
The Codium fragile extract liquid was diluted with PBS to have a concentration of 1%, and then used in the following test.
Each antibacterial agent used in the test was prepared to have a concentration that was two times a test concentration for mixing of the antibacterial agent with the Codium fragile extract liquid, a fraction having a predetermined molecular weight, or PBS at 1:1.
As a CPC solution, a stock solution (2% CPC) was obtained by dissolving 0.2 g of CPC in 10 mL of ethanol solution. This solution was diluted 20-fold with purified water to prepare a 0.1% CPC (5% ethanol) solution. This solution was further diluted with a 5% ethanol solution to prepare 0.05% CPC (5% ethanol) and 0.02% CPC (5% ethanol).
As a benzalkonium chloride solution, a stock solution (2% benzalkonium chloride) was obtained by dissolving 0.2 g of benzalkonium chloride in 10 mL of ethanol solution. This solution was diluted 5-fold with ethanol to prepare an ethanol solution of 0.4% benzalkonium chloride solution. This solution was diluted 20-fold with purified water to prepare 0.02% benzalkonium chloride (5% ethanol). This was further diluted 2-fold with a 5% ethanol solution to prepare a 0.01% benzalkonium chloride (5% ethanol) solution. This solution was diluted 2 times with a 5% ethanol solution to prepare a 0.005% benzalkonium chloride (5% ethanol) solution.
A 20% aqueous chlorhexidine solution was used as an undiluted solution of chlorhexidine solution. The chlorhexidine solution was diluted 20-fold with ethanol and purified water to prepare a 0.1% chlorhexidine (5% ethanol) solution. This solution was further diluted 5-fold with a 5% ethanol solution to prepare a 0.02% chlorhexidine (5% ethanol) solution. This solution was further diluted 10-fold with 5% ethanol to prepare a 0.002% chlorhexidine (5% ethanol) solution.
As an IPMP solution, a stock solution (4% IPMP) was obtained by dissolving 0.4 g of IPMP in 10 mL of ethanol solution. This solution was diluted 20-fold with ethanol and purified water to prepare a 0.2% IPMP (20% ethanol) solution. This solution was further diluted 2-fold with 20% ethanol to prepare a 0.1% IPMP (20% ethanol) solution. This solution was further diluted with 20% ethanol to prepare a 0.04% IPMP (20% ethanol) solution.
Two or more hours after toothbrushing, saliva was collected. Stimulated saliva secreted by mastication of Parafilm was collected, and then centrifuged at 4° C. and 2,000×g for 30 minutes. A supernatant was filtered with suction through a cellulose mixed ester membrane filter (0.1 μm, 90 mm), and the saliva was diluted with PBS to have an appropriate concentration.
100 μL of the human saliva prepared as describe above was added to a 96-well multiplate (made from polystyrene, MultiSorp, manufactured by Thermo Fisher Scientific Inc.), the multiplate was sealed, and incubation was carried out at 37° C. for 1 hour. Each well was then cleaned twice with 300 μL of PBS, 100 μL of each of the samples described above was added, the multiplate was sealed, and incubation was carried out at 37° C. for 1 hour. Subsequently, the liquid was discarded from each of the wells, the wells were cleaned twice with 300 μL of PBS, and 100 μL of the bacterial culture prepared such that OD660 was 0.125 was added to each well.

Molecule: CCCCCCCCCCCCCCCC[n+]1ccccc1 [CPC, cetylpyridinium chloride]
- Adhesion rate (0.010 (w/v %) CPC, relative value, FIG. 1): 92.6
- Adhesion rate (0.025 (w/v %) CPC, relative value, FIG. 1): 93.4
- Adhesion rate (0.050 (w/v %) CPC, relative value, FIG. 1): 98.9

Molecule: Cc1cc(O)ccc1C(C)C [IPMP, 3-methyl-4-isopropyl methylphenol]
- Adhesion rate (0.020 (w/v %) IPMP, FIG. 4): 91.5
- Adhesion rate (0.050 (w/v %) IPMP, FIG. 4): 84.3
- Adhesion rate (0.100 (w/v %) IPMP, FIG. 4): 70.7

Molecule: [H]/N=C(\N/C(=N/[H])NCCCCCCNC(=N)NC(=N)Nc1ccc(Cl)cc1)Nc1ccc(Cl)cc1 [chlorhexidine]
- Adhesion rate (0.010 (w/v %) chlorhexidine, FIG. 3): 85.9
- Adhesion rate (0.025 (w/v %) chlorhexidine, FIG. 3): 63.3
- Adhesion rate (0.050 (w/v %) chlorhexidine, FIG. 3): 62.4

Molecule: benzalkonium chloride
- Adhesion rate (0.010 (w/v %) benzalkonium chloride, FIG. 2): 103
- Adhesion rate (0.025 (w/v %) benzalkonium chloride, FIG. 2): 98.4
- Adhesion rate (0.050 (w/v %) benzalkonium chloride, FIG. 2): 93.8
